Columns and labels:
[1] = test system: Human immunodeficiency virus 1; test: Potency index, ratio of EFV EC50 to compound EC50 for HIV-1 IRLL98 harboring reverse transcriptase M41L, D67N, Y181C, M184V, R211K, and T215Y mutants infected in human MT4 cells; format: functional
[2] = test system: Human immunodeficiency virus 1; test: Resistance index, ratio of ID50 for recombinant HIV-1 His-tagged reverse transcriptase p66/p51 L100I mutant to ID50 for recombinant wild type HIV-1 reverse transcriptase His-tagged p66/p51
[3] = target: Human immunodeficiency virus type 1 reverse transcriptase (Human immunodeficiency virus 1) (UniProt Q72547)
Description: Inhibition of recombinant wild type HIV-1 His-tagged reverse transcriptase p66/p51 expressed in Escherichia coli assessed as reduction in [3H]dTTP incorporation using poly(rA)/oligo(dT) as template/primer after 20 mins by scintillation counting analysis

[4] = Cytotoxicity against human MT4 cells assessed as reduction in cell viability after 5 days by MTT assay; format: cell-based
[5] = test system: Human immunodeficiency virus 1; test: Antiviral activity against HIV-1 IRLL98 harboring reverse transcriptase M41L, D67N, Y181C, M184V, R211K, and T215Y mutants infected in human MT4 cells assessed as inhibition of virus-induced cytopathic effect after 5 days by MTT assay; format: functional, organism-based; conditions: Human immunodeficiency virus 1, IRLL98, MT4, 120 h
[6] = test system: Human immunodeficiency virus 1; test: Antiviral activity against HIV-1 harboring reverse transcriptase Y188L mutant infected in human MT4 cells assessed as inhibition of virus-induced cytopathic effect after 5 days by MTT assay; format: functional, organism-based; conditions: Human immunodeficiency virus 1, MT4, 120 h
[7] = test system: Human immunodeficiency virus type 1 reverse transcriptase (Human immunodeficiency virus 1), Q72547 [L100I]
[8] = test system: Human immunodeficiency virus 1; test: Antiviral activity against HIV-1 harboring reverse transcriptase K103N mutant infected in human MT4 cells assessed as inhibition of virus-induced cytopathic effect after 5 days by MTT assay; format: functional, organism-based; conditions: Human immunodeficiency virus 1, MT4, 120 h
[9] = test system: Human immunodeficiency virus 1; test: Resistance index, ratio of EC50 for HIV-1 harboring reverse transcriptase K103N mutant to EC50 for wild type HIV-1 NL4-3; format: functional
[10] = test system: Human immunodeficiency virus 1; test: Antiviral activity against HIV 1 harboring reverse transcriptase Y181C mutant infected in human MT4 cells assessed as inhibition of virus-induced cytopathic effect after 5 days by MTT assay; format: functional, organism-based; conditions: Human immunodeficiency virus 1, MT4, 120 h
[11] = test system: Human immunodeficiency virus 1; test: Resistance index, ratio of ID50 for recombinant HIV-1 His-tagged reverse transcriptase p66/p51 Y181I mutant to ID50 for recombinant wild type HIV-1 reverse transcriptase His-tagged p66/p51
[12] = test system: Human immunodeficiency virus 1; test: Resistance index, ratio of EC50 for HIV-1 harboring reverse transcriptase Y188L mutant to EC50 for wild type HIV-1 NL4-3; format: functional
[13] = test system: Human immunodeficiency virus type 1 reverse transcriptase (Human immunodeficiency virus 1), Q72547 [Y181I]
[14] = test system: Human immunodeficiency virus 1; test: Resistance index, ratio of ID50 for recombinant HIV-1 His-tagged reverse transcriptase p66/p51 K103N mutant to ID50 for recombinant wild type HIV-1 reverse transcriptase His-tagged p66/p51
[15] = test system: Human immunodeficiency virus 1; test: Potency index, ratio of EFV EC50 to compound EC50 for HIV-1 harboring reverse transcriptase K103N/Y181C double mutant infected in human MT4 cells; format: functional
[16] = test system: Human immunodeficiency virus 1; test: Potency index, ratio of TMC120 EC50 to compound EC50 for HIV-1 IRLL98 harboring reverse transcriptase M41L, D67N, Y181C, M184V, R211K, and T215Y mutants infected in human MT4 cells; format: functional
[17] = test system: Human immunodeficiency virus 1; test: Resistance index, ratio of EC50 for HIV-1 harboring reverse transcriptase K103N/Y181C double mutant to EC50 for wild type HIV-1 NL4-3; format: functional
[18] = test system: Human immunodeficiency virus 1; test: Resistance index, ratio of EC50 for HIV-1 IRLL98 harboring reverse transcriptase M41L, D67N, Y181C, M184V, R211K, and T215Y mutants to EC50 for wild type HIV-1 NL4-3; format: functional
[19] = test system: Human immunodeficiency virus 1; test: Resistance index, ratio of EC50 for HIV-1 harboring reverse transcriptase Y181C mutant to EC50 for wild type HIV-1 NL4-3; format: functional
[20] = test system: Human immunodeficiency virus 1; test: Antiviral activity against HIV-1 harboring reverse transcriptase K103N/Y181C double mutant infected in human MT4 cells assessed as inhibition of virus-induced cytopathic effect after 5 days by MTT assay; format: functional, organism-based; conditions: Human immunodeficiency virus 1, MT4, 120 h
[21] = test system: Human immunodeficiency virus type 1 reverse transcriptase (Human immunodeficiency virus 1), Q72547 [K103N]
Description: Inhibition of recombinant HIV-1 His-tagged reverse transcriptase p66/p51 K103N mutant expressed in Escherichia coli assessed as reduction in [3H]dTTP incorporation using poly(rA)/oligo(dT) as template/primer after 20 mins by scintillation counting analysis

[22] = Therapeutic index, ratio of CC50 for human MT4 cells to EC50 for HIV-1 NL4-3 infected in human MT4 cells; format: toxicity, cell-based; conditions: read-out: Ratio CC50/EC50
[23] = test system: Human immunodeficiency virus 1; test: Antiviral activity against wild type HIV 1 NL4-3 infected in human MT4 cells assessed as inhibition of virus-induced cytopathic effect after 5 days by MTT assay; format: functional, organism-based; conditions: Human immunodeficiency virus 1, NL4-3, MT4, 120 h

Row | SMILES | Ratio EC50 [1] | Ratio [2] | ID50 [3] [nM] | CC50 at 120 h [4] [nM] | EC50 [5] [nM] | EC50 [6] [nM] | ID50 [7] [nM] | EC50 [8] [nM] | Ratio EC50 [9] | EC50 [10] [nM] | Ratio [11] | Ratio EC50 [12] | ID50 [13] [nM] | Ratio EC50 [17] | Ratio EC50 [18] | Ratio EC50 [19] | EC50 [20] [nM] | ID50 [21] [nM] | selectivity ratio [22] | EC50 [23] [nM] | also measured
1 | CCC(C)Sc1nc(C(OC)c2c(F)cccc2Cl)c(C)c(=O)[nH]1 (centres undefined) | 2000 - 3000 | 133 | 0.9 | 52800 | 0.6 | 55 | 120 | 1 | 5 | 27 | 711 | 275 | 640 | 140 | 3 | 135 | 28 | 12 | 264000 | 0.2 | Ratio [14]: 13; Ratio EC50 [15]: 5 - 15; Ratio EC50 [16]: 3 - 10
2 | CCC(C)Sc1nc(C(C)c2c(F)cccc2Cl)c(C)c(=O)[nH]1 (centres undefined) | – | – | – | > 1500 | 95 | – | – | – | – | – | – | – | – | 1367 | 317 | – | 410 | – | > 5000 | – | –
3 | Cc1cc(C#N)cc(C)c1Oc1nc(Nc2ccc(C#N)cc2)nc(N)c1Br [ETRAVIRINE] | – | – | 6 | 3500 | – | – | – | 2 | 4 | 9 | – | 40 | – | 38 | – | 18 | – | 85 | 7000 | 0.5 | –
4 | O=C1Nc2ccc(Cl)cc2[C@@](C#CC2CC2)(C(F)(F)F)O1 [EFAVIRENZ] | – | – | – | > 3000 | 630 | – | – | 390 | – | 44 | – | – | – | – | – | – | 400 | – | – | – | –
5 | COC(c1nc(SC(C)C)[nH]c(=O)c1C)c1c(F)cccc1Cl (centres undefined) | 2000 - 3000 | 190 to 225 | 4 to 5 | > 70000 | 1 | 52 to 72 | 900 to 950 | 6 to 8 | 16 - 20 | 25 to 45 | 320 to 375 | 144 - 173 | 1500 to 1600 | 92 | 2 | 83 - 90 | 46 | 81 to 89 | 140000 to 233000 | 0.3 to 0.5 | Ratio [14]: 18 to 20; Ratio EC50 [15]: 5 - 15; Ratio EC50 [16]: 3 - 10
6 | CCCN(C)c1nc(C(OC)c2c(Cl)cccc2Cl)c(C)c(=O)[nH]1 (centres undefined) | 2000 - 3000 | 21 to 23 | 16 to 18 | 70800 | 2 | 30 to 35 | 340 to 420 | 6 to 7 | 7 | 11 to 14 | 46 to 47 | 30 - 39 | 740 to 840 | 34 | 2 | 11 - 16 | 31 | 38 to 42 | 70800 to 78700 | 0.9 to 1 | Ratio [14]: 2; Ratio EC50 [15]: 5 - 15; Ratio EC50 [16]: 3 - 10
7 | COC(c1nc(NC2CCCC2)[nH]c(=O)c1C)c1c(F)cccc1F (centres undefined) | 2000 - 3000 | 23 | 15 | 74600 | 2 | 700 to 740 | 350 | 5 to 6 | 6 - 7 | 69 to 75 | 57 | 822 - 875 | 850 | 85 | 2 | 83 - 86 | 77 | 39 | 82900 to 93200 | 0.8 to 0.9 | Ratio [14]: 3; Ratio EC50 [15]: 5 - 15; Ratio EC50 [16]: 3 - 10
8 | Cc1c(C(C)c2c(F)cccc2Cl)nc(SC(C)C)[nH]c1=O (centres undefined) | – | – | – | > 15000 | 75 | – | – | – | – | – | – | – | – | 6750 | 1875 | – | 270 | – | > 375000 | – | –
9 | Cc1ccnc2c1NC(=O)c1cccnc1N2C1CC1 [NEVIRAPINE] | – | – | – | > 7000 | – | > 7000 | 8500 to 9000 | – | – | – | – | – | 33000 to 35000 | – | – | – | > 7000 | – | – | – | –
10 | Cc1c(C(C)c2c(F)cccc2F)nc(NC2CCCC2)[nH]c1=O (centres undefined) | – | 17 | 30 | 90000 | 85 | 950 | 500 | 410 | 16 | 220 | 57 | 38 | 1700 | 17 | 3 | 9 | 420 | 380 | 3600 | 25 | –

From ChEMBL document CHEMBL4371047, “Effect of α-Methoxy Substitution on the Anti-HIV Activity of Dihydropyrimidin-4(3 H)-ones” (J Med Chem, 2019)
